# Non-standard residues stand in square brackets, D forms with d. Residues, ends and D or L forms follow the SMILES beside them.
# Legend:
# human erythrocytes [1] = experiment: Hemolytic activity (HC50); format: cell-based; conditions: 18 hours at 37 °C; human red blood cells; Figure 8, 100% control 0.1% Triton-X 100
# Description: Hemoglobin release was determined spectrophotometrically at 570 nm.
# From these plots, the HC50 values, the peptide concentration that produces 50% hemolysis of human red blood cells after 18 hours in the standard microtiter dilution method was determined.
# human erythrocytes [2] = experiment: Hemolytic activity (HC50); format: cell-based; conditions: 1 hour incubation at 37 °C; human red blood cells; Figure 8, 100% control 0.1% Triton-X 100
structure (smiles),measurement,setting,value
CC[C@@H](C)[C@@H](NC(=O)[C@H]1CCCN1C(=O)[C@@H](CCCNC(=N)N)NC(=O)[C@@H](Cc1ccccc1)NC(=O)[C@H](NC(=O)[C@@H](Cc1c[nH]cn1)NC(=O)[C@@H](Cc1c[nH]cn1)NC(=O)[C@@H](Cc1ccccc1)NC(=O)[C@H](N)Cc1ccccc1)[C@H](C)CC)C(=O)N[C@@H](C(=O)N[C@H](Cc1c[nH]cn1)C(=O)N[C@@H](C(=O)NCC(=O)N[C@H](CCCCN)C(=O)N[C@@H](C(=O)N[C@@H](C(=O)N[C@H](Cc1c[nH]cn1)C(=O)N[C@H](CCCNC(=N)N)C(=O)N[C@H](CC(C)C)C(=O)N[C@@H](C(=O)N[C@@H](C(=O)NCC(N)=O)[C@H](C)O)C(C)C)[C@H](C)CC)[C@H](C)O)C(C)C)C(C)C [D-Piscidin 1 G8P] (H-[dF][dF][dH][dH][dI][dF][dR][dP][dI][dV][dH][dV]G[dK][dT][dI][dH][dR][dL][dV][dT]G-NH2),"Hemolytic activity HC50, 18 hours (Figure 8 comparison)",human erythrocytes [1],8 µM
same,"Hemolytic activity HC50, 1 hour",human erythrocytes [2],55 µM
